The source of these data is patent US20250257055A1, “TERTIARY AMIDE DERIVATIVES SUBSTITUTED WITH 4-MEMBERED RING STRUCTURE” (Sumitomo Pharma Co., Ltd., priority 2024, published 2025).

Data set [1] is described as follows: Pharmacokinetic study in mice. The class given is in vivo. The conditions noted are these: for AUC / clearance / half-life / Vd / Cmax: female, BALB/c (BALB/cAnN CrlCrlj), mouse, plasma; for Vd: read-out: Vdss. As to the method:
The test compound was administered to 7-week-old female BALB/c (BALB/cAnN CrlCrlj) mice intravenously (dosage: 1 mg/kg) in a 50% PEG solution (0.01 mol/L HCl) or orally (dosage: 10 mg/kg) in a 0.5% methylcellulose aqueous solution, and blood was collected at the following times:
Intravenous administration: 5 min, 15 min, 30 min, 1 hr, 2 hr, 4 hr, 6 hr, and 24 hr after administration
Oral administration: 15 min, 30 min, 1 hr, 2 hr, 4 hr, 6 hr, and 24 hr after administration
The collected blood was centrifuged at 3000 rpm×10 min using a refrigerated centrifuge set at 4° C., and the obtained plasma was measured by LC-MS. A calibration curve was prepared from the value (peak ratio) obtained by dividing the peak area of the test substance by the peak area of the internal standard substance in MS and the concentration of the plasma calibration curve sample. The concentration in the sample was calculated from the peak ratio and the calibration curve of each sample.

Data set [2] deals with hDAT (Homo sapiens (Human), UniProt Q01959). Description: Dopamine receptor inhibitory activity evaluation (binding assay, CHO-S/hDAT membranes). The conditions noted are these: CHO-S/hDAT membrane preparation. As to the method: The binding evaluation assay was outsourced to Eurofins. Specifically, CHO-S/hDAT cells were homogenized in an incubation buffer consisting of 50 mmol/L Tris-HCl, pH 7.4, 100 mmol/L NaCl, 1 μmol/L Leupeptin, and 10 μmol/L PMSF. The membrane pellet obtained by centrifugation was resuspended in the incubation buffer to prepare a membrane preparation. The test compound (1-10 μmol/L DMSO solution), the membrane preparation, and 0.15 nmol/L […] were mixed and incubated at 4° C. for 180 minutes. The cell membrane-[^125I]RTI-55 complex was bound to a GF/B filter mat by vacuum filtration and washed with 50 mmol/L Tris-HCl, pH 7.4. The effect on the receptor was assessed by measuring radioactivity using a scintillation counter.
Chain of hDAT (Q01959 whole entry): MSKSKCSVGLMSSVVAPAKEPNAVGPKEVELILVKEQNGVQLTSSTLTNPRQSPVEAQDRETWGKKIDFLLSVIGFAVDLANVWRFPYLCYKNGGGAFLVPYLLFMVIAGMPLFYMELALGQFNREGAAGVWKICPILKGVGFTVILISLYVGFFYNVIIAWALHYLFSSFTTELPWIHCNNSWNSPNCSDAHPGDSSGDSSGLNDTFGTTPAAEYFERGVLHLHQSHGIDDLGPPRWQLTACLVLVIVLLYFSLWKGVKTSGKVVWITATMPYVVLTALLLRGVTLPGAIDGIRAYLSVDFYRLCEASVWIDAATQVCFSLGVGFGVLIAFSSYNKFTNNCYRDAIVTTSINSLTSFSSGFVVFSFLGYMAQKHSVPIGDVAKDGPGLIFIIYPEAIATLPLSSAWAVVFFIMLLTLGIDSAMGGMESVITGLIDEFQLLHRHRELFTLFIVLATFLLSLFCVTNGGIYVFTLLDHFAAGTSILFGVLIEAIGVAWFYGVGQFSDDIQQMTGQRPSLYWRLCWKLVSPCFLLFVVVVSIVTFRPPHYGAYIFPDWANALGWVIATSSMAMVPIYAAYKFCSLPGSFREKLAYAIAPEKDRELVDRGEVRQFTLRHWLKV

The subject of data set [3] is G-401 xenograft. Briefly: Drug efficacy evaluation by intravenous administration using G-401 xenograft mice model. The class given is in vivo. The conditions noted are these: for antitumor effect (in words): G-401 xenograft model, intravenous administration; for T/C: intravenous (tail vein), 14 days. As to the method:
G-401 cells (ATCC) were intradermally transplanted into 4-7-week-old BALB/cAnNCrj-nu/nu mice (CAnN.Cg-Foxn1/CrlCrlj, Jackson Laboratory Japan) at 5×10^5 cells/mouse. After confirming the engraftment of G-401 cells 10-40 days after transplantation, the test compound suspended in a solvent such as 10 mmol/L glycine buffer solution (pH 2.0) was administered via the tail vein at least once a week at a dose of 0.015-20 mg/kg. The tumor volume was measured over time from the start of administration, and the effect of tumor volume reduction by administration of the test compound was evaluated. The tumor volume can be calculated from the following equation using the minor axis and major axis of the tumor measured with an electronic caliper (Mitutoyo).
A control administration group administered with only a solvent such as 10 mmol/L glycine buffer solution (pH 2.0) and a test compound administration group were compared, and the antitumor effect was evaluated by calculating T/C from the following equation.

For `CN1CC(N(Cc2ccc(F)cc2)C(=O)CN2C(=O)N[C@]3(C[C@@H](F)c4cc(-c5cnn(C)c5)ccc43)C2=O)(C(F)(F)F)C1` [Example 10, 2-[(1′S,3′R)-3′-fluoro-5′-(1-methyl-1H-pyrazol-4-yl)-2,5-dioxo-2′,3′-dihydrospiro[imidazolidine-4,1′-inden]-1-yl]-N-[(4-fluorophenyl)methyl]-N-[1-methyl-3-(trifluoromethyl)azetidin-3-yl]acetamide], in data set [1] (intravenous, 1 mg/kg), the AUC came to 491 ng·h/mL, the clearance was found to be 33.5 mL/min/kg, the half-life was 1.16 h and the Vd came to 1.8 L/kg. Further, in data set [1] (oral, 10 mg/kg), the AUC was determined as 3480 ng·h/mL, the Cmax was found to be 3240 ng/mL and the BA was 70.8%. Besides, the inhibition at 10 µM in data set [2] was found to be 6%. Moreover, the “antitumor effect (in words)” value in data set [3] is listed as “strong antitumor effects”. Besides, the T/C in data set [3] (10 mg/kg) is reported as 73%.

Regarding `O=C1N[C@]2(C[C@@H](F)c3cc(-c4cnn(C5CCN(C6COC6)CC5)c4)ccc32)C(=O)N1CC(=O)N(Cc1ccc(F)cn1)C1(C(F)(F)F)COC1` [Example 23, 2-[(1′S,3′R)-3′-fluoro-5′-{1-[1-(oxetan-3-yl)piperidin-4-yl]-1H-pyrazol-4-yl}-2,5-dioxo-2′,3′-dihydrospiro[imidazolidine-4,1′-inden]-1-yl]-N-[(5-fluoropyridin-2-yl)methyl]-N-[3-(trifluoromethyl)oxetan-3-yl]acetamide], in data set [1] (intravenous, 1 mg/kg), the AUC came to 1690 ng·h/mL, the clearance was determined as 9.8 mL/min/kg, the half-life was 4.1 h and the Vd amounted to 1.8 L/kg. In data set [1] (oral, 10 mg/kg), this compound returned an AUC of 8400 ng·h/mL, a Cmax of 8140 ng/mL and a BA of 49.7%. In addition, the inhibition at 10 µM in data set [2] turned out to be 7%. Moreover, the “antitumor effect (in words)” value in data set [3] is reported as “strong antitumor effects”. Also, the T/C in data set [3] (20 mg/kg) was 54%.

Take `CN1CC(N(Cc2ccc(F)cn2)C(=O)CN2C(=O)N[C@]3(C[C@@H](F)c4cc(-c5cnn(C6COC6)c5)ccc43)C2=O)(C(F)(F)F)C1` [Example 24, 2-{(1′S,3′R)-3′-fluoro-5′-[1-(oxetan-3-yl)-1H-pyrazol-4-yl]-2,5-dioxo-2′,3′-dihydrospiro[imidazolidine-4,1′-inden]-1-yl}-N-[(5-fluoropyridin-2-yl)methyl]-N-[1-methyl-3-(trifluoromethyl)azetidin-3-yl]acetamide]: in data set [1] (intravenous, 1 mg/kg), the AUC was 313 ng·h/mL, the clearance was determined as 53 mL/min/kg, the half-life was 1.15 h and the Vd was found to be 2.1 L/kg. In data set [1] (oral, 10 mg/kg), this compound showed an AUC of 1470 ng·h/mL, a Cmax of 1470 ng/mL and a BA of 47.0%. At 10 µM the inhibition in data set [2] was 6%. The “antitumor effect (in words)” value in data set [3] is given as “strong antitumor effects”. For the same compound, in data set [3] (20 mg/kg), the T/C is 44%.

Turning to `CN1CC(N(Cc2ccc(F)cn2)C(=O)CN2C(=O)N[C@]3(C[C@@H](F)c4cc(-c5cnn(C)c5)ccc43)C2=O)(C(F)(F)F)C1` [Example 20, 2-[(1′S,3′R)-3′-fluoro-5′-(1-methyl-1H-pyrazol-4-yl)-2,5-dioxo-2′,3′-dihydrospiro[imidazolidine-4,1′-inden]-1-yl]-N-[(5-fluoropyridin-2-yl)methyl]-N-[1-methyl-3-(trifluoromethyl)azetidin-3-yl]acetamide], in data set [1] (intravenous, 1 mg/kg), the AUC was 528 ng·h/mL, the clearance stood at 31.1 mL/min/kg, the half-life is 1.34 h and the Vd stood at 1.6 L/kg. In data set [1] (oral, 10 mg/kg), this compound showed an AUC of 1520 ng·h/mL, a Cmax of 1340 ng/mL and a BA of 28.8%. In data set [2], this compound displayed an inhibition at 10 µM of 46%. Moreover, the “antitumor effect (in words)” value in data set [3] is listed as “strong antitumor effects”. The same compound had a T/C in data set [3] (10 mg/kg) of 53%.

Regarding `O=C1N[C@]2(C[C@@H](F)c3cc(-c4cnn(C5CN(C6COC6)C5)c4)ccc32)C(=O)N1CC(=O)N(Cc1ccc(F)cn1)C1(C(F)(F)F)COC1` [Example 7, 2-[(1′S,3′R)-3′-fluoro-5′-{1-[1-(oxetan-3-yl)azetidin-3-yl]-1H-pyrazol-4-yl}-2,5-dioxo-2′,3′-dihydrospiro[imidazolidine-4,1′-inden]-1-yl]-N-[(5-fluoropyridin-2-yl)methyl]-N-[3-(trifluoromethyl)oxetan-3-yl]acetamide], in data set [1] (intravenous, 1 mg/kg), the area under the curve (AUC) came to 819 ng·h/mL, the clearance was 19.9 mL/min/kg, the half-life was 1.41 h and the Vd turned out to be 1.3 L/kg. Also, in data set [1] (oral, 10 mg/kg), the AUC turned out to be 8240 ng·h/mL, the concentration peaked (Cmax) at 6140 ng/mL and the BA amounted to 100.6%. The inhibition at 10 µM in data set [2] turned out to be 7%. The “antitumor effect (in words)” value in data set [3] is “strong antitumor effects”. This compound registered a T/C in data set [3] (20 mg/kg) of 40%.
